Data reported in PubChem BioAssay (NCI).
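In this assay, cells in 96-well plates receive the compound at five concentrations for 48 hours. Endpoints are linearly interpolated between the surrounding concentrations. Here, GI50 denotes the concentration required for 50% inhibition of growth. The concentration for full growth arrest is given as TGI.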

System: MDA-MB-468 breast
Assay: growth of human tumour cells (NCI), 48 h

Row | Compound | GI50 | TGI
1 | COc1cc(-c2cc(/C=C/C(=O)c3ccc(N)cc3)[nH]n2)cc(OC)c1OC | 1010 nM | 2910 nM
2 | CCOC(=O)c1ccc2[nH]c(O)c(C(=Nc3ccc(N(C)C(=O)CN4CCN(C)CC4)cc3)c3ccccc3)c2c1 | 827 nM | 2290 nM
3 | O=C(O[C@H]1CN[C@H](C#Cc2cc3ncnc(Nc4ccc5c(cnn5Cc5ccccc5)c4)c3s2)C1)N1CCOCC1 | 209 nM | 2580 nM
4 | Cn1c2c(c3ccc(-c4ccn[nH]4)cc3c1=O)C(=O)c1ccccc1-2 | 4900 nM | > 100000 nM
5 | Clc1ccc(N2CCN(CCCN3CCN(c4cccc(Cl)c4)CC3)CC2)cc1 | 1630 nM | 10800 nM
6 | Oc1ccccc1N=Cc1c(O)ccc2ccccc12 | 7090 nM | 29500 nM
7 | CCOC(=O)C1=C(N)CCC1C (stereo not given) | > 100000 nM | > 100000 nM
8 | Cc1cc(C)c(C#N)c(SCC(=O)c2sc3c(C#N)c(C)cc(C)[n+]3c2[O-])n1 | 266 nM | –
9 | COC(=O)C1CCC(NC(=O)c2csc([C@@H](C[C@H](C(C)C)N(C)C(=O)[C@@H](NC(=O)[C@H]3CCCCN3C)C(C)C)OC(C)=O)n2)CC1 (stereo not given in full) | 2.45 nM | 6.83 nM
10 | CN1C(=O)N(C)C2C1NN=c1s/c(=C\c3ccccc3F)c(=O)n12 (stereo not given) | 211 nM | > 100000 nM
11 | O=C(Nc1ccc(Cl)cc1)Nc1ccc(Oc2nncc3ccccc23)cc1 | 752 nM | 2520 nM
12 | O=C(COc1cccc(/C=C2/Oc3ccccc3C2=O)c1)Nc1nccs1 | 2160 nM | 9070 nM
13 | CSCCC(NC(=O)CNC(=O)C(CC(=O)O)NC(=O)C(NC(=O)C(NC(=O)C(NC(=O)CNC(=O)C(CCC(N)=O)NC(=O)C(CCSC)NC(=O)C(CC(=O)O)NC(=O)C(C)NC(=O)C(C)NC(=O)C(NC(=O)C(CO)NC(=O)C(N)CC(C)C)C(C)O)C(C)C)C(C)C)C(C)O)C(=O)NC(C)C(=O)NC(CO)C(=O)NCC(=O)NC(CC(C)C)C(=O)NC(CC(=O)O)C(=O)NC(CCCCN)C(=O)NC(CC(=O)O)C(=O)NC(Cc1ccc(O)cc1)C(=O)NC(CC(C)C)C(=O)NC(CCCCN)C(=O)N1CCCC1C(=O)NC(CC(=O)O)C(=O)NC(CC(=O)O)C(=O)O (stereo not given) | > 82500 nM | > 82500 nM
14 | CCc1c2c(nc3ccc(OC(=O)NCc4ccc(B5OC(C)(C)C(C)(C)O5)cc4)cc13)-c1cc3c(c(=O)n1C2)COC(=O)[C@]3(O)CC | < 12.6 nM | 89.4 nM
15 | COc1ccccc1/C=C/C=N/NC1=NC2C(S1)N(C)C(=O)N2C (stereo not given) | 2130 nM | 7460 nM
16 | C[C@H](O)CNc1cc(-c2[nH]c3cccnc3c2-c2ccc(F)cc2)ccn1 | 7540 nM | > 25000 nM
17 | CN1CCN(c2ccc(N3Cc4ccccc4OC4=C3C(=O)c3c(O)ccc(O)c3C4=O)cn2)CC1 | 229 nM | 578 nM
18 | CCN(CC)CCOc1nc2c3ccc(Cl)cc3nn2c2ccccc12 | 1510 nM | 3570 nM
19 | O=C1/C(=C/c2ccc(O)c(O)c2)COc2ccc(-c3ccccc3)cc21 | 731 nM | 2640 nM
20 | Cc1ccc(NCCN2CCCCC2)c2c(=O)c3ccccc3sc12 | 2380 nM | 5190 nM
21 | CN(C)c1ccc(-c2c(NC(C)(C)C)nc3c(OCCc4ccccc4)cccn23)cc1 | 2290 nM | 6280 nM
22 | O=C1c2ccccc2C(=O)c2c1ccc(C(Br)Br)c2Cl | 2000 nM | 4540 nM
23 | Cc1cc(C(=O)NC(C)(C)C)cc(C#Cc2ccc3c4c(oc3c2)C(C)(C)c2cc(NS(C)(=O)=O)ccc2C4=O)n1 | 3180 nM | > 100000 nM
24 | CS(=O)(=O)Nc1ccc(Nc2c3ccccc3nc3cc(N)ccc23)cc1 | 106 nM | 973 nM
25 | Cc1ccc(-c2cc3c(NC(=O)C4CC4)ncnc3o2)cc1 | > 25000 nM | > 25000 nM
26 | COc1ccc(C(=O)n2nc(/C=C/c3ccc(O)c(OC)c3)cc2/C=C/c2ccc(O)c(OC)c2)cc1 | 370 nM | 2000 nM
27 | CCN(CC)CCNC(=O)c1cn2ncnc(Oc3ccc(NC(=O)Nc4ccc(Cl)c(C(F)(F)F)c4)cc3)c2c1C | 1670 nM | 3290 nM
28 | CC(C)CCC[C@@H](C)[C@H]1CCC2C3=CCn4c(=O)ccc(=O)n4C3CC[C@@]21C (stereo not given in full) | 887 nM | 2980 nM
